Data as given in patent US9526720B2, “Modulators of hepatic lipoprotein metabolism” (The Broad Institute, Inc., priority 2012, dated 2016).
Read-outs that look alike come from different tables or passages of the source.

How the values were obtained:
ApoB = test: ELISA of secreted ApoB in HepG2 cells; assay type: cell-based, human; set-up: key to ELISA 24 Hr (EC50 uM) ApoB decrease: A: EC50 between 0.0000001 μM≦0.5 μM; B: EC50 between 0.51 μM≦1.0 μM; EC50 between 1.1 μM≦2.0 μM; D: EC50 between 2.1 μM≦5.0 μM; EC50 between 5.1 μM≦10 μM; F: EC50>10 μM; NC: No change; conditions: for EC50: Homo sapiens, HepG2, 24 h, read-out: ELISA 24 Hr (EC50 uM) ApoB decrease
Experimental: (§1) Additional secondary assays were performed in HepG2 cells to further characterize the cellular response to treatment with select confirmed TRIB1 inducer hits. The results of the ELISA, CTG, and qPCR secondary assays are summarized in Table B. For all secondary assays, the experiments were performed using powders of freshly purified compounds.
(§2) To further characterize the relationship of TRIB1 induction and PCSK9 reduction, ELISAs were performed to measure the levels of secreted ApoB, PCSK9, and LDLR. […] As predicted treatment with TRIB1 inducer hits caused a decrease in ApoB levels detected by ELISA. In parallel effort, 3200 BIOA and NATP compounds were screened for PCSK9 expression inhibitors. Hits were defined as inducing greater than 3-fold downregulation of PCSK9, and 3.8% of the screened compounds were confirmed as hits. […] In further experiments, a strong correlation was confirmed between TRIB1 induction and PCSK9 repression in DOS Collection hits. ELISA analysis confirmed that treatment with TRIB1 inducers reduced the PCSK9 protein levels. LDLR protein levels were also analyzed by ELISA to determine whether compounds that modulate both TRIB1 and PCSK9 had any effect on LDLR protein levels.

LDLR [1] = test: ELISA of LDLR protein in HepG2 cells; assay type: cell-based, human; conditions: for EC50: Homo sapiens, HepG2, 24 h, read-out: ELISA 24 Hr (EC50 uM) LDLR increase
Experimental: as §1, §2

PCSK9 [2] = test: ELISA of secreted PCSK9 protein in HepG2 cells; assay type: cell-based, human; conditions: for EC50: Homo sapiens, HepG2, 24 h, read-out: ELISA 24 Hr (EC50 uM) PCSK9 decrease
Experimental: as §1, §2

HepG2 cells = test: Cell Titer Glo (CTG) cell viability assay; assay type: cell-based, human; set-up: key: A: Increase <2-fold; B: Increase >2-fold; X: Decrease <2-fold; Y: Decrease >2-fold; No significant change; conditions: cell viability (ATP)
Experimental: Cell viability was determined using a Cell Titer Glo (CTG) assay ([…]) after treatment with TRIB1 inducer compounds. In this assay, the number of viable cells in culture is based on quantitation of ATP, which indicates metabolically active cells. Addition of the reagent results in cell lysis and generation of a luminescent signal proportional to the amount of ATP present, which is directly proportional to the number of viable, metabolically active cells present in culture. Most TRIB1 inducer compounds had no significant effect on cell viability.

TRIB1 [3] = test: qPCR TRIB1 expression in HepG2 cells; assay type: cell-based, human; conditions: Homo sapiens, 20 h; HepG2 cells
Experimental: (§3) In the primary screen, HepG2 cells were plated in 384-well plates at 2000 cells per well and incubated for 20 hours with each compound in duplicate at 10 microM concentration. Then RNA was isolated, reverse-transcribed to cDNA, and stored at −80° C. Expression levels of TRIB1 and other target genes, such as SORT1 and PCSK9, were determined by quantitative PCR. Relative gene expression level was normalized to expression of the housekeeping gene, GAPDH. A “hit” was defined as those compounds that caused a greater than 2-fold increase in relative target gene expression when normalized to GAPDH expression, compared to DMSO-treated control. Using these criteria, 130 hits were identified for TRIB1 (0.8% hit rate).
(§4) Further analysis of the expression levels of various proteins in the cholesterol and triglyceride biosynthetic pathways in response to TRIB1 inducer treatment was performed. In particular, transcript levels of additional lipoprotein metabolism pathway proteins SCAP, SREBF1, SREBF2, HMGCR, HMGCS, SCD1, FASN and MTTP were assessed by qPCR, along with TRIB1, LDLR, and PCSK9. The gene expression profile for the same subset of genes was also assessed after treatment with the statin atorvastatin (Lipitor), commonly used in therapy for hypercholesterolemia and other cardiovascular diseases.
(§5) The kinetics of the modulation of TRIB1, LDLR, PCSK9 and MTTP gene expression after treatment by select TRIB1 inducer compounds was monitored by qPCR analysis (FIG. 4). RNA was extracted from cells at various timepoints over 28 hours of treatment (0, 2, 4, 6, 8, 24, 28 hours). Specifically, compounds 12a and 14a induced transcriptional responses over time similar to those produced by berberine, a plant alkaloid used in Chinese medicine. […] Both compound 12a and compound 14a induce TRIB1 and LDLR and repress PCSK9 and MTTP expression with similar kinetics and similar fold change as berberine Importantly, both compounds induce these gene expression changes at much lower concentrations than berberine. […] This increased potency indicates the potential therapeutic efficacy of such compounds for treatment of cardiovascular diseases, particularly hypercholesterolemia and related conditions.

SCAP = test: qPCR SCAP transcript level in HepG2 cells; assay type: cell-based, human; set-up: key: A: Increase <2-fold; B: Increase >2-fold; X: Decrease <2-fold; Y: Decrease >2-fold; No significant change
Experimental: as §3, §4

SREBF1 = test: qPCR SREBF1 transcript level in HepG2 cells; assay type: cell-based, human; set-up: key: A: Increase <2-fold; B: Increase >2-fold; X: Decrease <2-fold; Y: Decrease >2-fold; No significant change
Experimental: as §3, §4

SREBF2 = test: qPCR SREBF2 transcript level in HepG2 cells; assay type: cell-based, human; set-up: key: A: Increase <2-fold; B: Increase >2-fold; X: Decrease <2-fold; Y: Decrease >2-fold; No significant change
Experimental: as §3, §4

PCSK9 [4] = test: qPCR PCSK9 expression in HepG2 cells; assay type: cell-based, human; conditions: Homo sapiens; for EC50: HepG2, 24 h, read-out: qPCR 24 Hr (EC50 uM) PCSK9 down-regulation
Experimental: as §3, §4, §5

LDLR [5] = test: qPCR LDLR expression in HepG2 cells; assay type: cell-based, human; conditions: for EC50: Homo sapiens, HepG2, 6 h, read-out: qPCR 6Hr (EC50 uM) LDLR up-regulation
Experimental: as §3, §4, §5

HMGCR = test: qPCR HMGCR transcript level in HepG2 cells; assay type: cell-based, human
Experimental: as §3, §4

HMGCS = test: qPCR HMGCS transcript level in HepG2 cells; assay type: cell-based; conditions: Homo sapiens, 20 h
Experimental: as §3, §4

FASN = test: qPCR FASN transcript level in HepG2 cells; assay type: cell-based; conditions: Homo sapiens, 20 h
Experimental: as §3, §4

SCD1 = test: qPCR SCD1 transcript level in HepG2 cells; assay type: cell-based; conditions: Homo sapiens, 20 h
Experimental: as §3, §4

TRIB1 [6] = test: qPCR TRIB1 expression in HepG2 cells; assay type: cell-based; conditions: Homo sapiens
[7] = HepG2, 6 h, read-out: qPCR 6Hr (EC50 uM) TRIB1 up-regulation
[8] = HepG2, induction of TRIB1 and LDLR transcript levels, read-out: half maximal effective concentration (EC50)

Row | SMILES | EC50 (ApoB) | EC50 (LDLR [1]) | EC50 (PCSK9 [2]) | EC50 (PCSK9 [4]) | EC50 (LDLR [5]) | EC50 (TRIB1 [6]; [7]) | other results
1 | O=C(C[C@H]1CC[C@H]2[C@@H](COC[C@@H](O)CN2Cc2ccc(Oc3ccccc3)cc2)O1)N1CCc2ccccc2C1 [Compound 7a] | – | – | – | – | – | – | ELISA ApoB (ApoB; HepG2 cells): Y (Decrease >2-fold); ELISA LDLR (LDLR [1]; HepG2 cells): B (Increase >2-fold); ELISA PCSK9 (PCSK9 [2]; HepG2 cells): Y (Decrease >2-fold); CTG (HepG2 cells): N; fold induction at 10 µM (TRIB1 [3]): > 2; qPCR SCAP (SCAP): N; qPCR SREBF1 (SREBF1): N; qPCR SREBF2 (SREBF2): N; fold induction at 10 µM (PCSK9 [4]; 20 h, HepG2 cells): > 2; qPCR LDLR (LDLR [5]; HepG2 cells): B (Increase >2-fold); qPCR HMGCR (HMGCR): Y (Decrease >2-fold); fold induction at 10 µM (HMGCS): > 2; fold induction at 10 µM (FASN): < 2; fold induction at 10 µM (SCD1): < 2
2 | CN(C)C(=O)c1ccc(-c2ccc([C@H]3[C@@H](C#N)N(C(=O)C4CCC4)[C@H]3CO)cc2)cc1 [Compound 18a] | 0.51 to 1 µM | 2.1 to 5 µM | 0.51 to 1 µM | 0.51 to 1 µM | 1.1 to 2 µM | 1.1 to 2 µM | –
3 | N#C[C@@H]1[C@H](c2ccc(-c3ccccc3F)cc2)[C@H](CO)N1C(=O)C1CCC1 [Compound 21a] | > 10 µM | 5.1 to 10 µM | 1.1 to 2 µM | 0.51 to 1 µM | 5.1 to 10 µM | 2.1 to 5 µM | –
4 | N#C[C@@H]1[C@H](c2ccc(-c3cccc(F)c3)cc2)[C@@H](CO)N1C(=O)c1cccnc1 [Compound 24a] | – | 5.1 to 10 µM | 2.1 to 5 µM | – | 2.1 to 5 µM | 5.1 to 10 µM | ELISA 24 Hr (EC50 uM) ApoB decrease (ApoB; 24 Hr): NC
5 | COCC(=O)Nc1ccc2c(c1)C(=O)N(C)[C@H]1CC[C@@H](CC(=O)NC3Cc4ccccc4C3)O[C@H]1CO2 [Compound 16a] | – | – | – | – | – | – | EC50 (TRIB1 [6]; [8]): < 1 µM
6 | N#C[C@H]1[C@H](c2ccc(-c3cccc(F)c3)cc2)[C@@H](CO)N1C(=O)NC1CCCC1 [Compound 20a] | > 10 µM | 1.1 to 2 µM | 1.1 to 2 µM | 0.51 to 1 µM | 2.1 to 5 µM | 2.1 to 5 µM | –
7 | CN(C)C(=O)c1ccc(-c2ccc([C@H]3[C@@H](C#N)N(C(=O)C4CCCCC4)[C@H]3CO)cc2)cc1 [Compound 17a] | – | 1.1 to 2 µM | – | – | 0.51 to 1 µM | 0.51 to 1 µM | EC50 (TRIB1 [6]; [8]): < 1 µM
